How the values were obtained:
[1] = Stability study: purity by anionic exchange chromatography; assay type: physicochemical; conditions: purity %(5° C.) − purity %(30° C.), 30 μM, pH 7.4
Method: Samples for stability studies were prepared by weighing out 8-10 mg freeze-dried material. The freeze-dried material was solubilized to […] in a premade solution A (5 mM phophate (pH 7.4), 140 mM NaCl and 70 ppm polysorbate 20). Protein concentration was determined using absorbance at 280 nm using a Nanodrop 2000 (Thermo Fisher Scientific Inc.) and theoretical extinction coefficients. Dilution into solution A was done to reach a final concentration of 30 μM.
Anionic exchange chromatography was performed on an Ultra-Performance Liquid Chromatography system (Waters Acquity H-Class) equipped with a fluorescence detector (Waters Acquity FLR Detector). A Bio SAX column with dimensions 50×4.6 mm from Agilent, kept at 30° C., was used in gradient elution mode. Mobile phase A was 5/95 (v/v), acetonitrile/water with 25 mM BIS-TRIS propane, pH 7.3 and mobile phase B was 5/95 (v/v), acetonitrile/water with 25 mM BIS-TRIS propane and 350 mM NaCl, pH 7.3. Injection volume was 3 μL. The flow rate was kept at 0.5 mL/min with a linear gradient from 10 to 47% B in 3 min followed by a linear gradient from 47 to 55% B in 30 min. Peaks were detected with an emission wavelength of […] and data processing is performed with the EMPOWER 3 software from Waters. Samples were analysed for purity as percent API in relation to all other species.
Reported as Δ purity %=purity %(5° C.)−purity % (30° C.).
Stability of Fc-insulin analogues was evaluated by comparing purity from anion exchange chromatography and formation of high molecular weight products (HMWP) at 5° C. (control) versus 30° C. (heat induced stress). […] The amount of HMWP was decreased by 0.5-2% in the stressed sample versus the control, i.e. some aggregated material has disassociated during incubation at 30° C.

hFcRn ectodomain = target: T1, hFcRn ectodomain (Homo sapiens, UniProt P55899); assay: SPR analysis of the binding of hFcRn ECD; conditions: pH 6.0, 25° C., steady-state fitting; read-out: Kn (μM), binding of hFcRn ECD
T1 construct: the hFcRn ectodomain diluted at 4000 nM with 2-fold serial dilutions was injected
T1 sequence (P55899 24-297 limits assumed): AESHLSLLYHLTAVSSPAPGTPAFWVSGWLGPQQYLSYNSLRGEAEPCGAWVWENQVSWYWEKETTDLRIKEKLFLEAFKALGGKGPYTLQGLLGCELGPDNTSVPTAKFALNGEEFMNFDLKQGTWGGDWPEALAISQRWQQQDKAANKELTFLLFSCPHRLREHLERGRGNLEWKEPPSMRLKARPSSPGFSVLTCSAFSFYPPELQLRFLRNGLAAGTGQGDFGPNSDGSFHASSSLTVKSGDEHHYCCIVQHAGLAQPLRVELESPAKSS
T1 sequence (P61769 21-119 partner): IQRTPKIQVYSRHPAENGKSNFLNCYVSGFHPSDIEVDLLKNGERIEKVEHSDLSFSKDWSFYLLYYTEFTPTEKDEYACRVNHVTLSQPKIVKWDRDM
Method: First, the three Insulin-Fc samples diluted at 10 ug/ml and the wild-type hIgG4 Fc (produced in HEK293 cells, i.e. glycosylated) diluted at 30 ug/ml in 10 mM sodium acetate (pH 4.5) (GE Healthcare, catalogue #BR100350) were immobilized on a CMD50L sensor chip (XanTec Bioanalytics GmbH) at spot 2 or 4 at 70-90 RU in each used flow cell via amine coupling with 1×HBS-EP+ (pH 7.4) (GE Healthcare, catalogue #BR-1006-69) used as the running buffer. The wild-type hIgG4 Fc was used as the control sample. In each used flow cell, spots 2, 3 and 4 were activated by 100 mM N-hydroxysuccinimide (NHS) and 400 mM N-ethyl-N′-dimethylaminopropyl carbodiimide hydrochloride (EDC) mixed at equal volume before the immobilization and blocked by 1 M ethanolamine hydrochloride-NaOH (pH 8.5) after the immobilization. NHS, EDC and ethanolamine were obtained from the Amine Coupling Kit, type 2 (GE Healthcare, catalogue #BR100633).
Next, the hFcRn ectodomain diluted at 4000 nM with 2-fold serial dilutions was injected through each used flow cell for 60 sec to allow for binding of the hFcRn ectodomain to the Insulin-Fc conjugates and wild-type hIgG4 Fc samples immobilized on the sensor chip, followed by dissociation for 180 sec. 1×PBS-EP+ (pH 6.0) was used as the dilution buffer for the hFcRn ectodomain and the running buffer in each binding cycle at the flow rate of 30 ul/min. After each binding cycle, the sensor chip was regenerated with a 60 sec injection of 1×PBS-EP+ (pH 7.4) at the flow rate of 30 ul/min. The 1×PBS-EP+ (pH 7.4) buffer was prepared by diluting 0.5 M EDTA (pH 8.0) (Invitrogen, catalogue #15575038) at 3 mM into 1×PBS-P+ (GE Healthcare, catalogue #28995084). The 1×PBS-EP+ (pH 6.0) buffer was prepared by adjusting the pH of the 1×PBS-EP+ buffer from 7.4 to 6.0 using ˜10 M HCl. The affinities (equilibrium dissociation constants, KD) were determined via steady-state fitting of the binding curves using the 1:1 binding model in Biacore 4000 Evaluation Software 1.0 (GE Healthcare).

[2] = tested on: streptozotocin treated Sprague-Dawley rats; assay: In vivo PD, blood glucose lowering in streptozotocin treated rats; design: species or system Sprague-Dawley rat; conditions: s.c. 30 nmol/kg, baseline corrected BG up to 10 days, difference from vehicle, mean
Method: Insulin-Fc conjugates were tested in vivo by subcutaneous (s.c.) administration to normal and streptozotocin (STZ) treated male Sprague-Dawley (SD) rats.
The rats were dosed s.c. in the neck region with a dose of 30 nmol/kg of the insulin-Fc conjugates. Blood samples for blood glucose and plasma insulin analysis were collected from the tongue vein up to 10 days post dosing. The insulin-Fc concentrations were measured by immuno-assay (LLOQ=1000 pM) and the resulting half-life values after s.c. dosing are shown in Table 4. The PK profiles for normal rats are shown in FIG. 3 and for streptozotocin treated rats in FIG. 6. Blood glucose (BG) was measured using Biosen S Line (EKF) and the BG and baseline corrected BG profiles for normal rats are shown in FIGS. 1 and 2 and for streptozotocin treated rats in FIGS. 4 and 5 respectively.

Row | Substance | Δ purity [1] | Kd (hFcRn ectodomain) | AOCBG STZ rat [2]
1 | (A14E, A21G, A22(GQEP)12, A70K^, A71P, B25H, B29R, desB30 human insulin)/(226A, 227G, 228P, 234A, 235K, 297E, 315Q, 384Q, des447 hIgG4-Fc(226-447))3,5-bis[(2-acetyl)amino]benzoyl Conjugate [Example 5.1] | 3.3% | 1.5 µM | 3181 mM·h
2 | (A14E, A21G, A22(GQEP)11, A66G, A67Q, A68E, A69K^, A70P, B16H, B25H, B29R, desB30 human insulin)/(226A, 227G, 228P, 234A, 235K, 297E, 315Q, 384Q, des447 hIgG4-Fc(226-447))3,5-bis[(2-acetyl)amino]benzoyl Conjugate [Example 5.2] | 6.7% | 1.6 µM | 4106 mM·h
